From ChEMBL document CHEMBL5096205, “Lysine Covalent Antagonists of Melanoma Inhibitors of Apoptosis Protein” (J Med Chem, 2021)

Key:
[1] = biological target: T1, Baculoviral IAP repeat-containing protein 7 (Homo sapiens, UniProt Q96CA5); assay: Antagonist activity at N-terminal His-tagged wild type ML-IAP BIR domain (63 to 179 residues) (unknown origin) expressed in Escherichia coli BL21 using AVPIAQKSEK-biotinylated peptide as substrate incubated for 2 hrs by DELFIA assay
T1 sequence (Q96CA5 whole entry): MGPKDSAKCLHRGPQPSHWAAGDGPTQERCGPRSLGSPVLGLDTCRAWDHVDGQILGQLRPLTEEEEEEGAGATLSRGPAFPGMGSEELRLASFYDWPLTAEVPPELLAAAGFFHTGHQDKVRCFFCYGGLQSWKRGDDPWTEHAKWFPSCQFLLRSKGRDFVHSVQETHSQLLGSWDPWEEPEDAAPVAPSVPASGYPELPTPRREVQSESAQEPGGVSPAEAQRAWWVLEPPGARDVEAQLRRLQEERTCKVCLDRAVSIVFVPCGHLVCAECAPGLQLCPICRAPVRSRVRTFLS

[2] = biological target: T1, Baculoviral IAP repeat-containing protein 7; assay: Antagonist activity at N-terminal His-tagged wild type ML-IAP BIR domain (63 to 179 residues)(unknown origin) expressed in Escherichia coli BL21 using AVPIAQKSEK-biotinylated peptide as substrate preincubated for 2 hrs with protein followed by substrate addition measured after 2 hrs by DELFIA assay
Homo sapiens = species on record: Homo sapiens; assay: Binding affinity to N-terminal His-tagged ML-IAP K135A mutant (63 to 179 residues) (unknown origin) expressed in Escherichia coli BL21 assessed as change in melting temperature at 20 uM incubated for 2 hrs followed by heating at 40 to 70 degree C for 30 mins by SYPRO orange dye based thermal shift assay; conditions: time 150.0 min
SK-MEL-28 [3] = assay: Induction of apoptosis in human SK-MEL-28 cells assessed as increase in caspase-3/7 activity measured up to 48 hrs in presence of 0.1 ng/mL TNFlpha by IncuCyteS3 caspase-3/7 fluorescence-based apoptosis assay; type: functional, cell-based; conditions: dose 0.1-10 µM, DDE = dose-dependent effect
SK-MEL-28 [4] = assay: Induction of apoptosis in human SK-MEL-28 cells assessed as increase in caspase-3/7 activity at 0.1 to 10 uM in presence of 0.1 ng/mL TNFlpha by IncuCyteS3 caspase-3/7 fluorescence-based apoptosis assay; type: functional, cell-based; conditions: dose 0.1-10 µM, time <= 48.0 hrs, TDE = time-dependent effect
[5] = biological target: T2, Baculoviral IAP repeat-containing protein 7 (Homo sapiens) (UniProt Q96CA5); conditions: dose 20.0 µM, time 150.0 min
T2 sequence (whole entry): T1 sequence (Q96CA5 whole entry)

[6] = biological target: E3 ubiquitin-protein ligase XIAP (Homo sapiens, UniProt P98170); assay: Antagonist activity at N-terminal His-tagged XIAP-BIR3 domain (253 to 347 residues)(unknown origin) expressed in Escherichia coli BL21 using AVPIAQKSEK-biotinylated peptide as substrate incubated for 2 hrs by DELFIA assay
Chain of E3 ubiquitin-protein ligase XIAP (P98170 whole entry, the tested form may be a part): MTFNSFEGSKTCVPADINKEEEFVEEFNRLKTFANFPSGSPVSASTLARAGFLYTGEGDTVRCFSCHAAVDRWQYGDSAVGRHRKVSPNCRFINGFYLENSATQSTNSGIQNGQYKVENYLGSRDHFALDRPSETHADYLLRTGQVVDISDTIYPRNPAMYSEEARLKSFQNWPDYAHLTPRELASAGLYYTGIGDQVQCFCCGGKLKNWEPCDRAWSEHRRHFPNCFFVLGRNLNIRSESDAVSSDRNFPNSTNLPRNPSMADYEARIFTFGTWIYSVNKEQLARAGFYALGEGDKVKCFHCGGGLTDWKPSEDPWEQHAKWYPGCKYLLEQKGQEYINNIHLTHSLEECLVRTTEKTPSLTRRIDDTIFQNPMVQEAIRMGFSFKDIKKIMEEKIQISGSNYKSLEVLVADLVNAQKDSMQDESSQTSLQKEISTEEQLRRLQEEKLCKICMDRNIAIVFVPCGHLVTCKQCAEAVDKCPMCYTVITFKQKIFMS

[7] = biological target: Baculoviral IAP repeat-containing protein 2 (Homo sapiens, UniProt Q13490); assay: Antagonist activity at N-terminal His-tagged cIAP1-BIR3 domain (unknown origin) expressed in Escherichia coli BL21 using AVPIAQKSEK-biotinylated peptide as substrate incubated for 2 hrs by DELFIA assay
Chain of Baculoviral IAP repeat-containing protein 2 (Q13490 whole entry, the tested form may be a part): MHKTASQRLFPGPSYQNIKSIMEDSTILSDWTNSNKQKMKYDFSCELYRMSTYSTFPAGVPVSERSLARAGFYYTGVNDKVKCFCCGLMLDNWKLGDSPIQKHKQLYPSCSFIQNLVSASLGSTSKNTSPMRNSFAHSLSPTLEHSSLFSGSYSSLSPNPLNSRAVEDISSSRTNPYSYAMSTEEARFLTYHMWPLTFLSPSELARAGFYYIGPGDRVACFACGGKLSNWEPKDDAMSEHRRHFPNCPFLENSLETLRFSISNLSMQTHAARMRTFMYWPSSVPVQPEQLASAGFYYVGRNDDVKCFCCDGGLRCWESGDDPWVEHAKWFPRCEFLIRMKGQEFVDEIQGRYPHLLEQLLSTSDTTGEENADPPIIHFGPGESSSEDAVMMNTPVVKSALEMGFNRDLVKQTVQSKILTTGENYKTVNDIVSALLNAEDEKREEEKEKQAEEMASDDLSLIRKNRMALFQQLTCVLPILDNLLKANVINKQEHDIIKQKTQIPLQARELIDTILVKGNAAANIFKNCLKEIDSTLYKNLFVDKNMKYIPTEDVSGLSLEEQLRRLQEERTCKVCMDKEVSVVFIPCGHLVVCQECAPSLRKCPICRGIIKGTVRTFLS

[8] = biological target: Baculoviral IAP repeat-containing protein 3 (Homo sapiens, UniProt Q13489); assay: Antagonist activity at N-terminal His-tagged cIAP2-BIR3 domain (unknown origin) expressed in Escherichia coli BL21 using AVPIAQKSEK-biotinylated peptide as substrate incubated for 2 hrs by DELFIA assay
Chain of Baculoviral IAP repeat-containing protein 3 (Q13489 whole entry, the tested form may be a part): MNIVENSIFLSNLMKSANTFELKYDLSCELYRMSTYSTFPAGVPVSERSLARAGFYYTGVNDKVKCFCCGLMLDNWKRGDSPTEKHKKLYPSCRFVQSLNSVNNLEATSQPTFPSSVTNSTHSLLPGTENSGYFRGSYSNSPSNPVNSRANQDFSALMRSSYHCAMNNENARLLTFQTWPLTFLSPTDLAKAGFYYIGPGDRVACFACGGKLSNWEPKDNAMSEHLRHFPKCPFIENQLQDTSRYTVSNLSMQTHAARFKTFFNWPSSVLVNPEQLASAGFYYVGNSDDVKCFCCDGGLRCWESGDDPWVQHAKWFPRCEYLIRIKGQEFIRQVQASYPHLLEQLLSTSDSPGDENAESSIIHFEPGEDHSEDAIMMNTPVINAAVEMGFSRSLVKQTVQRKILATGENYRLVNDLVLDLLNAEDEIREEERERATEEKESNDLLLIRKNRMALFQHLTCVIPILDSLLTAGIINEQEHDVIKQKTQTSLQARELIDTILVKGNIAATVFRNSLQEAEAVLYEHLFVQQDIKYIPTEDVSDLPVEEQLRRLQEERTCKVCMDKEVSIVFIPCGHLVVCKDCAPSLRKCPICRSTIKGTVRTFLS

| ΔTm (Homo sapiens) | Compound | IC50 [1] | Activity (SK-MEL-28 [3]) | Activity (SK-MEL-28 [4]) | IC50 [6] | IC50 [8] | also measured |
| --- | --- | --- | --- | --- | --- | --- | --- |
| 14.5 °C | CN[C@@H](C)C(=O)N[C@H](C(=O)N1CCC[C@H]1c1nc(C(=O)c2ccc(F)cc2)cs1)C1CCCCC1 [LCL-161] | 0.009 µM | Dde | Tde |  |  | IC50 [2]: 0.015 µM; ΔTm [5]: 12.6 °C |
|  | CN[C@@H](C)C(=O)N[C@@H](CNC(=O)c1cc(S(=O)(=O)F)ccc1OC)C(=O)N1CCC[C@H]1C(=O)N[C@@H]1CCc2c(F)cccc21 |  |  |  | > 1 µM |  |  |
|  | CN[C@@H](C)C(=O)N[C@@H](CNC(=O)c1cccc(S(=O)(=O)F)c1)C(=O)N1CCC[C@H]1C(=O)NC1Cc2ccccc2C1 | > 1 µM |  |  | > 2.5 µM | > 1.5 µM | IC50 [7]: > 1 µM |
| 4.7 °C | CN[C@@H](C)C(=O)N[C@@H](CNC(=O)c1cc(S(=O)(=O)O)ccc1OC)C(=O)N1CCC[C@H]1C(=O)N[C@@H]1CCc2ccccc21 |  |  |  |  |  |  |
|  | CN[C@@H](C)C(=O)N[C@@H](CNC(=O)c1cc(S(=O)(=O)F)ccc1OC)C(=O)N1CCCC[C@H]1C(=O)N[C@@H](Cc1ccccc1)C(N)=O |  |  |  | > 2.5 µM | > 2 µM |  |

| Compound | ΔTm (Homo sapiens) | IC50 [1] | Activity (SK-MEL-28 [3]) | Activity (SK-MEL-28 [4]) | IC50 [6] | IC50 [8] | also measured |
| --- | --- | --- | --- | --- | --- | --- | --- |
| CN[C@@H](C)C(=O)N[C@@H](CNC(=O)c1cc(S(=O)(=O)F)ccc1OC)C(=O)N1CCC[C@H]1C(=O)N[C@@H]1CCc2ccccc21 | 6.2 °C |  | Dde | Tde |  |  |  |
